Marks after values point to notes of the source that are not given here.
Assays:
C. tropicalis = experiment: Toxicity tests of additional substrates (absorbance at 600 nm); type: cell-based; conditions: 24 hours, added without solvent
Method: Additional substrates were to be tested for bioconversion following a slightly different protocol than the one noted above in Example 3. Those substrates also had to be tested for toxicity similar to the test described in Example 2, to determine the highest concentration at which a substrate could be added to a culture broth without being toxic, inhibiting growth, or interfering with the bioconversion process. C. tropicalis was grown in the presence of the substrate at three different concentrations and growth was monitored spectrophotometrically. In contrast to Example 2, all test substrates were added directly to the culture medium without dissolving in solvent. The tests were completed as follows:
On the first day, H5343 was grown in YPD medium (25.0 ml seed culture) overnight on a rotary shaker at 30° C. and 250 rpm. The next day 1.0 ml of the seed culture was used to inoculate a new flask of 50 ml YPD. This culture was grown overnight on a rotary shaker at 30° C. and 250 rpm. […]
Two control flasks were each inoculated with H5343 in 25 ml YPD. All flasks were incubated on a rotary shaker at 30° C. and 250 rpm.
After 24 hours incubation, the absorbance at 600 nm of the test and control flask cultures was determined, using uninoculated YPD broth as blank. Cultures were diluted so that the OD^600 nm measured between 0.15 and 0.3.
For strongly inhibitory substrates, a concentration of 0.1-0.2% was chosen for the bioconversion tests.

[1] = test system: C. tropicalis strain H5343; experiment: Toxicity tests of substrates (growth by absorbance at 600 nm, streak plates); type: cell-based; conditions: for ABS 600.0 nm: 48 h, 30° C., dilution in YPD 1:100
Method: The toxicity test used here was similar to that used for the solvents described in Example 1. The goal was to determine the highest concentration at which a substrate could be added to a culture broth without being toxic, inhibiting growth, or interfering with the bioconversion process. C. tropicalis strain H5343 was grown in the presence of the substrate at different concentrations and growth was monitored spectrophotometrically. In order to determine if the substrate was lethal or was simply inhibiting growth, the cultures were examined under the microscope and streak plates of YPD and LB agar were prepared. Contamination of the culture with an unwanted organism could also be detected using this approach.
6 ml was transferred to the first tube and 3 ml to the rest. 1% substrate was added to the first tube and then serially diluted to give concentrations from 1% to 0.015%. Since the last tube was initially empty, the concentration in the last two tubes was the same. […] As a growth-control one culture without substrate was inoculated.
To determine if contamination had occurred, each culture was examined under the microscope and streak plates of both YPD and LB were made from the 1% and the inoculated 0.015% tube.

[2] = substrate concentration 0.01563%
[3] = substrate concentration 0.0313%

Compound | Absorbance at 600 nm (C. tropicalis; substrate concentration 0.1%) | Absorbance at 600 nm (C. tropicalis; substrate concentration 0.5%) | Absorbance at 600 nm (C. tropicalis; substrate concentration 1.0%) | ABS 600.0 nm [1, 2] | ABS 600.0 nm [1, 3] | ABS 600.0 nm ([1]; substrate concentration 0.063%) | ABS 600.0 nm ([1]; substrate concentration 0.13%) | ABS 600.0 nm ([1]; substrate concentration 0.25%) | ABS 600.0 nm ([1]; substrate concentration 0.5%) | ABS 600.0 nm ([1]; substrate concentration 1%) | Toxic at (concentration) ([1]; Phase I screening summary) | Absorbance at 600 nm (C. tropicalis; substrate concentration 0.06%) | Absorbance at 600 nm (C. tropicalis; substrate concentration 0.3%) | Absorbance at 600 nm (C. tropicalis; substrate concentration 0.6%)
CCCCCCCCCCCCCCC(O)CO (stereo not drawn) [1,2-Hexadecanediol] | 3.103 | 3.033 | 2.013 |  |  |  |  |  |  |  |  |  |  | 
CCCCCCCCC(=O)CCCCCCCC [9-Heptadecanone] |  |  |  | 0.100 | 0.120 | 0.064 | 0.103 | 0.120 | 0.073 | 0.004** |  |  |  | 
CCCCCCCCCCCCCCCCOC(C)=O [Hexadecyl acetate] |  |  |  | 0.110 | 0.104 | 0.089 | 0.083 | 0.110 | 0.103 | 0.155 |  |  |  | 
CCCCCCCCCCCCN [Dodecyclamine, Dodecylamine] |  |  |  | 0.000 | 0.000 | 0.000 | 0.000 | 0.000 | 0.000 | 0.000 | Toxic at 0.01% |  |  | 
CC1CCCCC1 [Methylcyclohexane] |  |  |  |  |  |  |  |  |  |  |  | 13.7 | 15.6 | 0.16
C=C(C)[C@@H]1CC=C(C)CC1 [S(−) limonene] |  |  |  | 0.104 | 0.094 | 0.011 | 0.002 | 0.000 | 0.002 | 0.002 |  |  |  | 
CCCCC(=O)C(C)C [2-Methyl-3-heptanone] |  |  |  |  |  |  |  |  |  |  |  | 19.2 | 0.099 | 0.125
CCCCCC#CCCCCC [6-Dodecyne] |  |  |  | 0.125 | 0.083 | 0.074 | 0.071 | 0.073 | 0.071 | 0.066 |  |  |  | 
CCC1CCCCC1 [Ethylcyclohexane] |  |  |  |  |  |  |  |  |  |  |  | 9.45 | 2.03 | 16.5
CCCCCCCCCCCCO [1-Dodecanol] |  |  |  | 0.000 | 0.000 | 0.000 | 0.004 | 0.032** | 0.013** | 0.267** |  |  |  | 
CCCC1CCCCC1 [Propylcyclohexane] | 44.13 | 34.12 | 1.201 |  |  |  |  |  |  |  |  |  |  | 
CCCC[S+]([O-])CCCC [Butylsulfoxide, dibutylsulfoxide] | 15.63 | 11.37 | 5.81 |  |  |  |  |  |  |  |  |  |  | 
CCCCCCCCC(CCCCCC)C(=O)O (stereo not drawn) [2-Hexydecanoic acid, 2-hexyldecanoic acid] | 27.73 | 35.33 | 41.53 |  |  |  |  |  |  |  |  |  |  | 
C=CCCCCCCCCCCCC [C14 a-Olefin, 1-tetradecene] |  |  |  | 0.061 | 0.084 | 0.085 | 0.097 | 0.115 | 0.084 | 0.087 |  |  |  | 
CCCCC(CC)C(=O)O (stereo not drawn) [2-Ethylhexanoic acid] |  |  |  | 0.099 | 0.051 | 0.000 | 0.000 | 0.000 | 0.000 | 0.000 |  |  |  | 
